Where “and” joins values, the source holds several entries; their conditions need not be identical. Equal values may be shown once.
System: human keratinocytes
Test: mRNA-Sequencing, human keratinocytes
Format: cell-based
Procedure: Human chronic myelogenous leukemia K562 cells (ATCC No. CCL-243) were obtained from the American Type Culture Collection (Manassas, Va., USA) and maintained in complete-[…] Park Memorial Institute (RPMI) 1640 medium supplemented with 20 mmol/L HEPES (pH 7.4; GIBCO-Invitrogen, Carlsbad, Calif., USA), 10% (v/v) fetal bovine serum (FBS), 2 mmol/L L-glutamine (GIBCO-Invitrogen), and 80 units gentamicin (GIBCO-Invitrogen). Cells were cultured in suspension in a humidified atmosphere of 5% (v/v) CO2 at 37° C. and were maintained in exponential growth phase. For maintenance, cells were passaged twice per week and seeded at ratios 1:10. Human neonatal foreskin keratinocytes transfected with the human papilloma virus (HPV) were grown as monolayers in keratinocyte—Serum Free Medium (SFM) medium (GIBCO-Invitrogen) supplemented with L-glutamine, human epidermal growth factor (EGF), and bovine pituitary extract (BPE) at 37° C., 5% (v/v) CO2. Cells were passaged by trypsinisation and seeded at ratio of 1:3. Cells were seeded at densities of 1×10^6/mL in culture flasks (Nalge Nunc, New York, USA) and treated with hydroxytyrosol (0, 20, 100 μM), for 24 hours at 37° C., 5% (v/v) CO2. mRNA sequencing was performed by TRIZOL extraction and library preparation using Illumina kits according to manufacturer's protocols. Next generation sequencing (NGS) was performed at a depth of approximately 20 million mapped reads per sample to determine the effect of hydroxytyrosol on genome-wide gene expression, in human erythroleukemic K562 cells and human keratinocytes (24 hr treatment, 20 and 100 μM). Reads generated by the Illumina base calling software V1.6 were aligned with Burrows Wheeler Aligner to the human transcriptome database curated by RefSeq (Hg18 build). Raw counts were normalized to adjust for slightly differing data volume across lanes giving the widely used score reads per transcript per million reads. These scores were used to determine relative fold changes and the conventionally used ±1.5 fold-change, which is discernible with qRT-PCR, was defined a significant change in expression. The online program MetaCore (GeneGo Inc. St. Joseph, MI, USA) was used for pathway analysis.

[1] = hydroxytyrosol 24 hr (20 μM per FIG. 18C)

SMILES: OCCc1ccc(O)c(O)c1 [HT, 4-(2-hydroxyethyl)-1,2-benzenediol]
- heme oxygenase 1 (HMOX-1) up-regulated (hydroxytyrosol): 15 fold
- number of genes whose expression is regulated (hydroxytyrosol): ~3 thousand genes
- ELP3 expression Fold Change (UP) [1]: 1.51 fold
- HDAC5 expression Fold Change (UP) [1]: 1.81 fold and 1.70 fold
- HDAC9 expression Fold Change (UP) [1]: 3.00 fold
- HDAC11 expression Fold Change (UP) [1]: 1.65 fold and 1.54 fold
- JHDM1D expression Fold Change (UP) [1]: 1.66 fold
- KDM2B expression Fold Change (UP) [1]: 1.64 fold and 1.55 fold
- KDM3A expression Fold Change (UP) [1]: 1.60 fold
- KDM5D expression Fold Change (DOWN) [1]: 2.00 fold
- MLL3 expression Fold Change (DOWN) [1]: 2.00 fold
- NCOA1 expression Fold Change (UP) [1]: 1.51 fold
- PRDM1 expression Fold Change (UP) [1]: 2.67 fold and 4.00 fold
- PRDM4 expression Fold Change (UP) [1]: 1.56 fold
- PRDM8 expression Fold Change (UP) [1]: 1.85 fold and 1.64 fold
- PRDM11 expression Fold Change (UP) [1]: 3.00 fold
- PRDM12 expression Fold Change (DOWN) [1]: 1.50 fold
- PRMT8 expression Fold Change (DOWN) [1]: 2.00 fold
- SETBP1 expression Fold Change (DOWN) [1]: 2.00 fold
- SETDB2 expression Fold Change (UP) [1]: 1.75 fold
- SETMAR expression Fold Change (UP) [1]: 1.53 fold
- SMYD3 expression Fold Change (DOWN) [1]: 1.55 fold

From patent US10231939B2, “Hydroxytyrosol and oleuropein compositions for induction of DNA damage, cell death and LSD1 inhibition” (priority 2012, dated 2019)
